Data taken from US12202861B2, “Inducible, tunable, and multiplex human gene regulation using CRISPR-Cpf1” (The General Hospital Corporation, priority 2017, dated 2025).

Columns and labels:
Type in all cases: cell-based, human
AR = assay: RT-qPCR activation of endogenous AR gene promoter in HEK293 cells; settings: bi-partite, with dLbCpf1 fusions harboring two, three or four DmrA domains, single crRNA
Method: (§1) FIGS. 1A-1E. Targeted human endogenous gene regulation using individual crRNAs with dLbCpf1-based activators • (A) Schematic showing direct dLbCpf1-VPR and dLbCpf-p65 activator fusion proteins. • (B) Activities of dLbCpf1-p65 or dLbCpf1-VPR using single crRNAs at three endogenous human genes (HBB, AR, and NPY1R) in human HEK293 cells. Relative activation of the indicated gene promoters was measured by RT-qPCR. Three separate individual crRNAs were targeted within promoter sequence 1 kb upstream of the transcription start site for each gene. Relative mRNA expression is calculated by comparison to the control sample in which no crRNA is expressed. (C) Analysis of various crRNAs targeted to the human CD5 and CD22 promoters. 32 crRNAs (16 for each gene) were designed to target sites located within promoter sequences 1 kb upstream or 500 bps downstream of the TSS of each gene. Repetitive sequences were not targeted. After 72 hours post-transfection, cells were stained with fluorescently labeled antibody for CD5 or CD22 protein and fluorescent-positive cells were quantified by flow cytometry. Error bars represent s.e.m. for three biological replicates. […] (D) Schematic illustrating drug-inducible bi-partite dLbCpf1-based activator fusion proteins. dLbCpf1 is fused to one to four DmrA domains and VPR or p65 is fused to a DmrC domain. Because DmrA and DmrC interact only in the presence of an A/C-heterodimerizer drug (red diamond), the bi-partite activator is only reconstituted in the presence of the drug. (E) Activities of drug-inducible bi-partite dLbCpf1-based activators using single crRNAs at three endogenous human genes (HBB, AR, and NPY1R) in human HEK293 cells. Relative activation of the indicated gene promoters was measured by RT-qPCR. […] Data shown in (B) and (E) represent three biological independent replicates and error bars indicate standard deviation (SD) of three technical replicates.
(A) Schematic of an expression cassette designed to express multiple gRNAs encoded on a single transcript. The arrows indicate cleavage sites being processed by the RNase activity of dLbCpf1. (B) Schematic illustrating multiplex expression of three crRNAs each targeted to a different endogenous gene promoter in a single cell. […] Transcripts were measured in HEK293 cells using RT-qPCR with relative mRNA expression calculated by comparison to the control sample in which no crRNA is expressed. […] RNA expression was measured by RT-qPCR and relative expression shown was calculated by comparison to a control sample in which no crRNA is expressed. […] Transcripts were measured in HEK293 cells using RT-qPCR with relative mRNA expression calculated by comparison to the control sample in which no crRNA is expressed. […]

HBB = assay: RT-qPCR activation of endogenous HBB gene promoter in HEK293 cells; settings: single crRNA
Method: as §1
(§2) (A) Schematic of an expression cassette designed to express multiple gRNAs encoded on a single transcript. The arrows indicate cleavage sites being processed by the RNase activity of dLbCpf1. (B) Schematic illustrating multiplex expression of three crRNAs each targeted to a different endogenous gene promoter in a single cell. (C) Simultaneous activation of three endogenous human genes using crRNAs expressed from a multiplex transcript or from individual transcripts with dLbCpf1-VPR direct fusions (left panel), dLbCpf1-DmrA(×4) and DmrC-VPR fusions (middle panel), and dLbCpf1-DmrA(×4) and DmrC-p65 fusions (right panel). Transcripts were measured in HEK293 cells using RT-qPCR with relative mRNA expression calculated by comparison to the control sample in which no crRNA is expressed. (D) Activities of MST crRNA with different dLbCpf1-based activators in human U20S cells. Graphs showing activation of three endogenous human genes with dLbCpf1-VPR direct fusions, dLbCpf1-DmrA(×4) and DmrC-p65 fusions, and dLbCpf1-DmrA(×4) and DmrC-VPR fusions and crRNAs expressed from a multiplex single transcript (MST) or from transcripts encoding a single crRNA. RNA expression was measured by RT-qPCR and relative expression shown was calculated by comparison to a control sample in which no crRNA is expressed. (E) Schematic illustrating multiplex expression of three crRNAs each targeted to the same endogenous gene promoter in the same cell. (F) Activities of direct dLbCpf1-p65 or dLbCpf1-VPR fusions with sets of three crRNAs expressed from a multiplex transcript or from individual transcripts on the HBB, AR, or NPY1R endogenous gene promoters. Transcripts were measured in HEK293 cells using RT-qPCR with relative mRNA expression calculated by comparison to the control sample in which no crRNA is expressed. (G) Activities of dLbCpf1-DmrA(×4) and DmrC-VPR fusions or with dLbCpf1-DmrA(×4) and DmrC-p65 fusions with sets of three crRNAs expressed from a multiplex transcript or from individual transcripts on the HBB, AR, or NPY1R endogenous gene promoters. […]

NPY1R = assay: RT-qPCR activation of endogenous NPY1R gene promoter in HEK293 cells; settings: single crRNA
Method: as §1, §2

HBB, AR, and NPY1R = assay: Simultaneous (multiplex) activation of three endogenous genes in HEK293 cells, RT-qPCR; settings: multiplex transcript vs single crRNA, HEK293, across the dLbCpf1-based activators
Source text: (A) Schematic of an expression cassette designed to express multiple gRNAs encoded on a single transcript. The arrows indicate cleavage sites being processed by the RNase activity of dLbCpf1. (B) Schematic illustrating multiplex expression of three crRNAs each targeted to a different endogenous gene promoter in a single cell. (C) Simultaneous activation of three endogenous human genes using crRNAs expressed from a multiplex transcript or from individual transcripts with dLbCpf1-VPR direct fusions (left panel), dLbCpf1-DmrA(×4) and DmrC-VPR fusions (middle panel), and dLbCpf1-DmrA(×4) and DmrC-p65 fusions (right panel). Transcripts were measured in HEK293 cells using RT-qPCR with relative mRNA expression calculated by comparison to the control sample in which no crRNA is expressed. […] RNA expression was measured by RT-qPCR and relative expression shown was calculated by comparison to a control sample in which no crRNA is expressed. […] Transcripts were measured in HEK293 cells using RT-qPCR with relative mRNA expression calculated by comparison to the control sample in which no crRNA is expressed. […] Transcripts were measured in HEK293 cells using RT-qPCR with relative mRNA expression calculated by comparison to the control sample in which no crRNA is expressed. […] Cells were collected at various time points and relative mRNA expression levels were measured by RT-qPCR compared to a negative control. […]

[1] = bi-partite with dLbCpf1-DmrA fusions
[2] = bi-partite, with dLbCpf1 fusions harboring two, three or four DmrA domains

DmrC-VPR: CAG-DmrC-NLS-FLAG-VPR; DmrC dimerization domain fused to VPR activator (SEQ ID NO: 49)
activation of transcription (AR): lack of an effect | dependence of maximal activation on A/C heterodimerizer drug (HBB; [1]): dependent on the presence of the A/C heterodimerizer drug | maximum level of activation relative to direct dLbCpf1-VPR fusions (HBB; [1]): approximately half | activation of transcription (HBB; [2]): activation | dependence of maximal activation on A/C heterodimerizer drug (NPY1R; [1]): dependent on the presence of the A/C heterodimerizer drug | maximum level of activation relative to direct dLbCpf1-VPR fusions (NPY1R; [1]): approximately half | activation of transcription (NPY1R; [2]): activation

B1: multiplex crRNAs: three LbCpf1 crRNAs (HBB, AR, NPY1R) encoded on a single U6-driven transcript (SEQ ID NO: 58) (nucleic acid)
guide: GAGGGCCTATTTCCCATGATTCCTTCATATTTGCATATACGATACAAGGCTGTTAGAGAGATAATTAGAATTAATTTGACTGTAAACACAAAGATATTAGTACAAAATACGTGACGTAGAAAGTAATAATTTCTTGGGTAGTTTGCAGTTTTAAAATTATGTTTTAAAATGGACTATCATATGCTTACCGTAACTTGAAAGTATTTCGATTTCTTGGCTTTATATATCTTGTGGAAAGGACGAAACACCGAATTTCTACTAAGTGTAGATTACTGATGGTATGGGGCCAAAATTTCTACTAAGTGTAGATCTCTAGGAACCCTCAGCCCCAATTTCTACTAAGTGTAGATAAGCCTCGGGAAACTGCCCTAATTTCTACTAAGTGTAGATTTTTTTT
modifications: misc_feature 1..397 crRNAs from Figure 2b
magnitude of activation somewhat lower than with expression of a single crRNA (HBB, AR, and NPY1R): 18 to 55%
